Measured values: PubChem BioAssay (NCI)
“And” between values parts separate entries of the source, which are not always exact repeats. Equal values may be shown once.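 96-well plates; 48 h exposure; 5 concentrations. Endpoints by linear interpolation between flanking doses. Not reached: highest tested concentration assigned. GI50 is the concentration that inhibits growth by half. TGI: total growth inhibition.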

Legend:
Assay in all cases: inhibition of tumour cell growth, NCI panel, 48 h
[1] = test system: 786-0 renal
[2] = test system: A498 renal
[3] = test system: A549 NSCLC
[4] = test system: ACHN renal
[5] = test system: BT-549 breast
[6] = test system: CAKI-1 renal
[7] = test system: CCRF-CEM leukemia
[8] = test system: COLO 205 colon
[9] = test system: DU-145 prostate
[10] = test system: EKVX NSCLC
[11] = test system: HCC-2998 colon
[12] = test system: HCT-116 colon
[13] = test system: HCT-15 colon
[14] = test system: HL-60(TB) leukemia
[15] = test system: HOP-62 NSCLC
[16] = test system: HOP-92 NSCLC
[17] = test system: HS 578T breast
[18] = test system: HT29 colon
[19] = test system: IGROV1 ovarian
[20] = test system: K-562 leukemia
[21] = test system: KM12 colon
[22] = test system: LOX IMVI melanoma
[23] = test system: M14 melanoma
[24] = test system: MALME-3M melanoma
[25] = test system: MCF7 breast
[26] = test system: MDA-MB-231 breast
[27] = test system: MDA-MB-435
[28] = test system: MDA-N
[29] = test system: MOLT-4 leukemia
[30] = test system: NCI-H226 lung
[31] = test system: NCI-H23 lung
[32] = test system: NCI-H460 lung
[33] = test system: NCI-H522 lung
[34] = test system: NCI/ADR-RES ovarian
[35] = test system: OVCAR-3 ovarian
[36] = test system: OVCAR-4 ovarian
[37] = test system: OVCAR-5 ovarian
[38] = test system: OVCAR-8 ovarian
[39] = test system: PC-3 prostate
[40] = test system: RPMI-8226 leukemia
[41] = test system: RXF 393 renal
[42] = test system: SF-268 CNS
[43] = test system: SF-295 CNS
[44] = test system: SF-539 CNS
[45] = test system: SK-MEL-2 melanoma
[46] = test system: SK-MEL-28 melanoma
[47] = test system: SK-MEL-5 melanoma
[48] = test system: SK-OV-3 ovarian
[49] = test system: SN12C renal
[50] = test system: SNB-19 CNS
[51] = test system: SNB-75 CNS
[52] = test system: SR leukemia
[53] = test system: SW-620 colon
[54] = test system: T-47D breast
[55] = test system: TK-10 renal
[56] = test system: U251 CNS
[57] = test system: UACC-257 melanoma
[58] = test system: UACC-62 melanoma
[59] = test system: UO-31 renal

## CN(C)c1ccc(/C=C/c2ccnc3ccccc23)cc1
[1]
  GI50: 3.77 µM
  TGI: > 100 µM and 21.6 µM
[2]
  GI50: 4.03 µM
  TGI: > 100 µM and 24.8 µM
[3]
  GI50: 4.14 µM
  TGI: > 100 µM
[4]
  GI50: 5.58 µM
  TGI: > 100 µM
[5]
  GI50: 1.88 µM
  TGI: > 100 µM and 14.6 µM
[6]
  GI50: 9.68 µM
  TGI: > 100 µM and 45 µM
[7]
  GI50: 4.52 µM
  TGI: > 100 µM
[8]
  GI50: 3.37 µM
  TGI: > 100 µM and 16 µM
[9]
  GI50: 5.86 µM
  TGI: > 100 µM
[10]
  GI50: 3.19 µM
  TGI: > 100 µM and 30.2 µM
[11]
  GI50: 5.95 µM
  TGI: > 100 µM and 33 µM
[12]
  GI50: 3.09 µM
  TGI: > 100 µM and 13.8 µM
[13]
  GI50: 3.76 µM
  TGI: > 100 µM
[14]
  GI50: 2.86 µM
  TGI: > 100 µM and 16.8 µM
[15]
  GI50: 3.34 µM
  TGI: > 100 µM and 16.6 µM
[16]
  GI50: 0.651 µM
  TGI: > 100 µM and 10.8 µM
[17]
  GI50: 3.67 µM
  TGI: 57 µM and > 30.1 µM
[18]
  GI50: 3.18 µM
  TGI: 84.3 µM and 11.8 µM
[19]
  GI50: 5.61 µM
  TGI: > 100 µM
[20]
  GI50: 1.66 µM
  TGI: > 100 µM
[21]
  GI50: 3.11 µM
  TGI: > 100 µM and 33.7 µM
[22]
  GI50: 4.7 µM
  TGI: > 100 µM and 19.7 µM
[23]
  GI50: 2.55 µM
  TGI: > 100 µM and 12.7 µM
[24]
  GI50: 11.2 µM
  TGI: > 100 µM and 55.4 µM
[25]
  GI50: 0.922 µM
  TGI: > 100 µM and 44.4 µM
[26]
  GI50: 5.36 µM
  TGI: > 100 µM and 30 µM
[27]
  GI50: 1.36 µM
  TGI: 72.6 µM and 20.7 µM
[28]
  TGI: 40.1 µM
[29]
  GI50: 3.59 µM
  TGI: 43.6 µM
[30]
  GI50: 3 µM
  TGI: 48 µM
[31]
  GI50: 3.83 µM
  TGI: > 100 µM and 23 µM
[32]
  GI50: 3.07 µM
  TGI: > 100 µM and 16.8 µM
[33]
  GI50: 10.5 µM
  TGI: > 100 µM
[34]
  GI50: 2.26 µM
[35]
  GI50: 2.71 µM
[36]
  GI50: 16.8 µM
  TGI: > 100 µM
[37]
  GI50: 6.9 µM
  TGI: > 100 µM and 49.6 µM
[38]
  GI50: 5.68 µM
  TGI: > 100 µM
[39]
  GI50: 3.28 µM
  TGI: > 100 µM and 46.6 µM
[40]
  GI50: 2.77 µM
  TGI: > 100 µM and 12.9 µM
[41]
  GI50: 13.4 µM
  TGI: > 100 µM
[42]
  GI50: 5.58 µM
  TGI: > 100 µM
[43]
  GI50: 3.43 µM
  TGI: > 100 µM and 21.2 µM
[44]
  GI50: 3.14 µM
  TGI: > 100 µM and 17.5 µM
[45]
  GI50: 26.2 µM
  TGI: > 100 µM
[46]
  GI50: 9.01 µM
  TGI: > 100 µM
[47]
  GI50: 2.48 µM
  TGI: > 100 µM and 11.7 µM
[48]
  GI50: 4.42 µM
  TGI: > 100 µM and 48.7 µM
[49]
  GI50: 3.95 µM
  TGI: > 100 µM
[50]
  GI50: 6.56 µM
  TGI: > 100 µM
[51]
  GI50: 2.41 µM
  TGI: > 100 µM and 11.9 µM
[52]
  TGI: > 100 µM
[53]
  GI50: 2.96 µM
  TGI: > 100 µM
[54]
  GI50: 2.57 µM
  TGI: > 100 µM and 63.8 µM
[55]
  GI50: 9.49 µM
  TGI: > 100 µM and 58.4 µM
[56]
  GI50: 4.04 µM
  TGI: > 100 µM and 63.4 µM
[57]
  GI50: 22.2 µM
  TGI: > 100 µM and 71.2 µM
[58]
  GI50: 3.11 µM
  TGI: > 100 µM and 29.5 µM
[59]
  GI50: 12.1 µM
  TGI: > 100 µM
